Data as given in patent US9532970B2, “Compositions for anti-inflammatory, antioxidant effects and improved respiratory function by specific histone deacetylase inhibition” (priority 2014, dated 2017).
Where two headings read alike, the source gives them in different places.

Legend:
HDAC-3 = HDAC-3 (Homo sapiens, UniProt O15379); assay: biochemical
HDAC-6 [1] = target: T1, HDAC-6 (Homo sapiens, UniProt Q9UBN7)
T1 sequence (Q9UBN7 1-1215): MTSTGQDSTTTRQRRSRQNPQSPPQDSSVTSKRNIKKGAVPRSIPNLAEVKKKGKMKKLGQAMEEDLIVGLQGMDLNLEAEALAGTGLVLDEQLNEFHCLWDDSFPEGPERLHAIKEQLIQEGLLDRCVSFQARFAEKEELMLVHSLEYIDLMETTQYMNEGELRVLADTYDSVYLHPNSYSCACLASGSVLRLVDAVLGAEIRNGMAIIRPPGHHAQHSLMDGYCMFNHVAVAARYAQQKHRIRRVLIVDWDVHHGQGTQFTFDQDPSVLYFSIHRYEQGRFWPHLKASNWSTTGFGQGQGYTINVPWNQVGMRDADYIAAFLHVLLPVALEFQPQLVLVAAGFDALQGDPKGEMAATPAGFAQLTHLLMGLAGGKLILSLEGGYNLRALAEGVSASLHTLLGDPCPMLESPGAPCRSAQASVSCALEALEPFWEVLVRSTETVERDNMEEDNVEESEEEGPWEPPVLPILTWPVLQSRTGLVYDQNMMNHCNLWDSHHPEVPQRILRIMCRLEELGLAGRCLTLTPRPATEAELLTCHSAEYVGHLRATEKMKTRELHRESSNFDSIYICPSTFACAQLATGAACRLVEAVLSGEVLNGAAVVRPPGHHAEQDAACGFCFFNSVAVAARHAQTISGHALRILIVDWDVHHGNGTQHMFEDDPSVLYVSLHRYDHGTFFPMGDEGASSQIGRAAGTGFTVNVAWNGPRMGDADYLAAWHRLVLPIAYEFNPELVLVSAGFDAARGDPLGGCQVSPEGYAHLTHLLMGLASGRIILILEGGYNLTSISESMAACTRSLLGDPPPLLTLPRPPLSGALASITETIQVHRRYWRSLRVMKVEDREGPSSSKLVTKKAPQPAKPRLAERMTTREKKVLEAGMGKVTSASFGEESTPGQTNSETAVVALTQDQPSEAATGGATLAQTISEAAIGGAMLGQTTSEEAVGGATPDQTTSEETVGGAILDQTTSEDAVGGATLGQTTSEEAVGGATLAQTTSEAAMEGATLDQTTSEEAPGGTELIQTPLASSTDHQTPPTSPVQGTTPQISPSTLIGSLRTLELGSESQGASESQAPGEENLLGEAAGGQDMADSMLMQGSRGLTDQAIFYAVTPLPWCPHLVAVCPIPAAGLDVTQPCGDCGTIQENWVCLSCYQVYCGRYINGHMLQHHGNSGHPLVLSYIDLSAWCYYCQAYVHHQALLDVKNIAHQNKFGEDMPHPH

HDAC-6 [2] = target: T1, HDAC-6; assay: biochemical
HDAC8 = HDAC8 (Homo sapiens, UniProt Q9BY41)
HDAC8, sequence (Q9BY41 whole entry, species assumed): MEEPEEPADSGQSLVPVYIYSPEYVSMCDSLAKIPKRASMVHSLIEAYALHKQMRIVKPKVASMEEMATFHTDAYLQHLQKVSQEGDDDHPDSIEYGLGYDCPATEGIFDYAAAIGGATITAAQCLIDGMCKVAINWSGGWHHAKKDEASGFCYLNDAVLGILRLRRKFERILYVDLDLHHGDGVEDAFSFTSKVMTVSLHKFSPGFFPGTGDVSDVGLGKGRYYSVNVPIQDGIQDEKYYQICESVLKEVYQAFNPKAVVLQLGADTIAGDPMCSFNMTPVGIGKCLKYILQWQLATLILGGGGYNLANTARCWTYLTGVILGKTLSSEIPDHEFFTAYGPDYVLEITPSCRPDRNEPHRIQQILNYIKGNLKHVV

Horse PBMC = details: for Log2 Fold Change: LSF vs control
[3] = more subtle than Trichostatin A
[4] = three control vs three LSF treated samples

HDAC-3, sequence (O15379 whole entry, species assumed): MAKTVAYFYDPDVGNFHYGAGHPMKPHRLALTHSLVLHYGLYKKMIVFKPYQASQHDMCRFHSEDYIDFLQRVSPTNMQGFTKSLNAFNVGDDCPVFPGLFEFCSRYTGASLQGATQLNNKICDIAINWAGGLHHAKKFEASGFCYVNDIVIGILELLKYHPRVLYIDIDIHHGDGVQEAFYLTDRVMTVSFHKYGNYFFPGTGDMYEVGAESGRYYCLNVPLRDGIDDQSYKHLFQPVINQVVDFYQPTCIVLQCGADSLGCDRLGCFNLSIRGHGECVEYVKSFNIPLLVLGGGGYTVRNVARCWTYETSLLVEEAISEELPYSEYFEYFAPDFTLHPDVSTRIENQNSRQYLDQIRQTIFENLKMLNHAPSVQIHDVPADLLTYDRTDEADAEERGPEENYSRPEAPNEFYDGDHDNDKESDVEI
HDAC-3, sequence (Q9Y618 395-489 partner limits assumed, species assumed): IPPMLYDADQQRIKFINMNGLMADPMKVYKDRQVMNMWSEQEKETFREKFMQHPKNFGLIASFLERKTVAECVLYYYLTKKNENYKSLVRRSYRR

C[S@@+]([O-])CCCCN=C=S [LSF, (R)-1-Isothiocyanato-4-(methylsulfinyl)butane]
IC50 (HDAC-3): 20.5 mM
HILLSLOPE (HDAC-6 [1]; HDAC-6): −0.88
binding to HDAC 6 (in words) (HDAC-6 [1]; [3]): specific binding
IC50 (HDAC-6 [2]): 1.02 mM
binding to HDAC8 relative to the other HDACs (HDAC8; FIG. 1): most pronounced
HILLSLOPE (HDAC8; HDAC-8): −0.88
binding to HDAC 8 (in words) (HDAC8; [3]): specific binding
Log2 Fold Change (Horse PBMC; gene ABCA1): −4.37
Log2 Fold Change (Horse PBMC; gene APOBEC3Z1B): −3.67
Log2 Fold Change (Horse PBMC; gene ASPH): 1.93
Log2 Fold Change (Horse PBMC; gene C2): −2.13
Log2 Fold Change (Horse PBMC; gene CD180): −2.97
Log2 Fold Change (Horse PBMC; gene CMKLR1): −3.79
Log2 Fold Change (Horse PBMC; gene CSF3R): −3.76
Log2 Fold Change (Horse PBMC; gene CXCL9): −2.55
Log2 Fold Change (Horse PBMC; gene CYP1B1): −3.83
Log2 Fold Change (Horse PBMC; gene DENND2A): 3.67
Log2 Fold Change (Horse PBMC; gene FRMPD4): −3.80
Log2 Fold Change (Horse PBMC; gene FTL): 1.51
Log2 Fold Change (Horse PBMC; gene GSAP): 2.00
Log2 Fold Change (Horse PBMC; gene IL8): 3.54
Log2 Fold Change (Horse PBMC; gene KCNJ2): 2.06
Log2 Fold Change (Horse PBMC; gene MAFB): −2.66
Log2 Fold Change (Horse PBMC; gene ME1): 1.47
Log2 Fold Change (Horse PBMC; gene MN-SOD): 1.93
Log2 Fold Change (Horse PBMC; gene NR1H3): −2.56
Log2 Fold Change (Horse PBMC; gene OSGIN2): 1.88
Log2 Fold Change (Horse PBMC; gene PLEKHA4): −3.60
Log2 Fold Change (Horse PBMC; gene PTPN12): 1.43
Log2 Fold Change (Horse PBMC; gene RIPK2): 2.01
Log2 Fold Change (Horse PBMC; gene RNASE6): −2.45
Log2 Fold Change (Horse PBMC; gene SERPINB2): −4.65
Log2 Fold Change (Horse PBMC; gene SLAMF8): −2.75
Log2 Fold Change (Horse PBMC; gene SLC7A8): −3.35
Log2 Fold Change (Horse PBMC; gene SLC7A11): 2.34
Log2 Fold Change (Horse PBMC; gene SLC37A2): −2.72
Log2 Fold Change (Horse PBMC; gene SORCS1): −2.71
Log2 Fold Change (Horse PBMC; gene STAC2): 3.38
Log2 Fold Change (Horse PBMC; gene STXBP5): 1.57
Log2 Fold Change (Horse PBMC; gene TGM2): −3.99
Log2 Fold Change (Horse PBMC; gene TNFSF15): 2.40
Log2 Fold Change (Horse PBMC; gene TNS3): −3.09
Log2 Fold Change (Horse PBMC; gene TUBA4A): 1.30
Log2 Fold Change (Horse PBMC; gene TXN): 1.87
Log2 Fold Change (Horse PBMC; gene TXNRD1): 2.13
Log2 Fold Change (Horse PBMC; gene WDR59): 2.19
Log2 Fold Change (Horse PBMC; gene ZFAND2A): 2.22
differentially expressed genes (number) (Horse PBMC; [4]): 5951
down-regulated genes (number) (Horse PBMC; [4]): 3012
up-regulated genes (number) (Horse PBMC; [4]): 2939
